Results taken from patent publication US10376465B2, “Monovalent metal cation dry powders for inhalation” (priority 2010, dated 2019).
Read-outs that look alike come from different tables or passages of the source.

Columns and labels:
[1] = Solubility of salts and drugs in water / ethanol; type: physicochemical
Description: Spray drying homogenous particles requires that the ingredients of interest be solubilized in solution or suspended in a uniform and stable suspension. Most of the materials mentioned in the material section are sufficiently water-soluble to prepare suitable spray drying solutions. […] As a result of these low solubilities, formulation feedstock development work was necessary to prepare solutions or suspensions that could be spray dried.
For the spray drying process, the salts, excipients and other drugs were dissolved or suspended in a solvent (e.g., water). The solid concentrations (w/v) were chosen dependent on the solubility of the different components (see Table 2). The ratios used for formulations were based on the molecular weight of the anhydrous salts (see Table 3).

[2] = test system: mice sensitized and challenged with ovalbumin (OVA); details: literature (Riesenfeld 2010); cited from earlier work

Compound | solubility in ethanol [1] | solubility in water [1] | eosinophilic cells and total cellularity in the mouse OVA model [2] | solubility in ethanol ([1]; in words) | solubility in water ([1]; in words)
CCCC1O[C@@H]2C[C@H]3[C@@H]4CCC5=CC(=O)C=C[C@]5(C)[C@H]4[C@@H](O)C[C@]3(C)[C@]2(C(=O)CO)O1 (stereo partly shown) [Budesonide, budesonide] | slightly soluble | practically insoluble |  |  | 
CCC(=O)O[C@]1(C(=O)SCF)[C@H](C)C[C@H]2[C@@H]3C[C@H](F)C4=CC(=O)C=C[C@]4(C)[C@@]3(F)[C@@H](O)C[C@@]21C [Fluticasone propionate, fluticasone propionate] | slightly soluble | practically insoluble | reduce eosinophilic cells and total cellularity |  | 
OCc1cc(C(O)CNCCCCCCOCCCCc2ccccc2)ccc1O (stereo not shown) [salmeterol xinafoate] |  |  |  | slightly soluble | practically insoluble
